From publication PMC9405466, “Mechanistic Insight into the Enzymatic Inhibition of β-Amyrin against Mycobacterial Rv1636: In Silico and In Vitro Approaches” (Biology, 2022) come the findings set out here.

Data set [1] concerns the target T1, Rv1636 (Mycobacterium tuberculosis, UniProt P9WFC9). As to the kind of experiment: malachite green ATPase inhibition assay. Type of data set: biochemical. To be noted: ATP as substrate; TMD buffer pH 8.0, 10 mM MgCl2.
The target of data set [2] is T1, Rv1636. As to the kind of experiment: isothermal titration calorimetry (VP-ITC), one-site model. It is filed as binding. To be noted: read-out: Ka1 (converted). An excerpt:
isothermal titration calorimetry (VP-ITC), one-site model on Rv1636

The test system of data set [3] is Nc1ncnc2c1ncn2[C@@H]1O[C@H](COP(=O)(O)OP(=O)(O)OP(=O)(O)O)[C@@H](O)[C@H]1O. The data set can be described thus: purified protein. To be noted: 50 mM Tris pH 8.0, 10 mM MgCl2, 1 mM DTT, 0-80 µM ATP, 5 µM Rv1636, 1 h.

T1 sequence (P9WFC9 whole entry, looked up): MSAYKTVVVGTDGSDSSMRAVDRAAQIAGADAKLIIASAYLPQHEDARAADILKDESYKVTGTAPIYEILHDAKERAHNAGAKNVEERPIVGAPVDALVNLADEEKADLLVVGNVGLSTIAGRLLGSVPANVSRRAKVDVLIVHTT

Consider `CC1(C)CC[C@]2(C)CC[C@]3(C)C(=CC[C@@H]4[C@@]5(C)CC[C@H](O)C(C)(C)[C@@H]5CC[C@]43C)[C@@H]2C1` [β-Amyrin], for which the ATPase activity result in data set [1] is given as “in the presence of an increasing concentration of β-Amyrin, the result showed a consistent reduction”. Also, the Kd in data set [2] is 17.8 µM.
With “Rv1636 (Mycobacterium tuberculosis H37Rv)”, in data set [3], the Km is listed as 5.187 ± 0.281 µM and the turnover number (kcat) is 0.000883 ± 1.7e-05 s⁻¹.
